Patent US7943586B2, “Antineoplastic agents targeted via glut transporters” (The Trustees of the University of Pennsylvania, priority 2003, dated 2011)
Values belong to the compound of their own block, whether it stands above or below them.

Columns and labels:
[1] = system: AR42J tumors (pancreatic acinar carcinoma); experiment: In vivo NIR phased array optical imaging of submerged AR42J tumors in nu/nu mice; design: species or system mouse; details: 3.5 hours after tail vein injection of 200 μL, tumor 1.5 cm deep
From the text: In vivo NIR optical imaging system: To image and localize subsurface fluorochrome labeled tumors, an NLR imaging system utilizing diffusion photons (Patterson, M. S.; Chance, B.; Wilson, B. C., Time resolved reflectance and transmittance for the non-invasive measurement of tissue optical properties. Applied Optics 1989, 28, 2331-2336.
Fishkin, J. B.; Gratton, E., Propagation of photon-density waves in strongly scattering media containing an absorbing seni-infinite plane bounded by a straight edge. Journal of the Optical Society of America A 1993, 10, 127-140.) has been developed. The in vivo fluorescence optical imaging system consists of a pair of laser diodes operating at 780 nm. […]
Intes, X.; Chen, Y.; Li, X. D.; Chance, B., Detection limit enhancement of fluorescent heterogeneities in turbid media by dual-interfering excitation. […] A 3-mm-in-diameter fiber bundle collects the fluorescence signal from the fluorophore taken by in the tumor. […] The fluorescence signal is then detected by the photomultiplier tube (PMT) and demodulated by the 50 MD receiver to obtain the amplitude and phase information. […] (Chen, Y.; Zheng, G.; Zhang, Z. H.; Blessington, D.; Zhang, M.; Li, H.; Iiu, Q.; Zhou, L.; Intes, X.; Achilefu, S.; Chance, B., Metabolism-enhanced tumor localization by fluorescence imaging: in vivo animal studies. Optics Letters 2003, 28, (21), 2070-2072). […]

9L glioma cells = experiment: Confocal microscopy of uptake and localization in 9L glioma cells, with or without D-glucose; format: cell-based, rat; details: for uptake / localization in 9L glioma cells / effect of D-glucose on uptake / localization in 9L glioma cells: 50 μM, 30 min, 37° C.; for effect of D-glucose on uptake / localization in 9L glioma cells: 50 mM D-glucose; for subcellular localization in 9L glioma cells: 100 μM Pyro-2DG with 10 μg/ml Rhodamine-123, 15 min post-incubation
Description: Confocal Microscopic Studies: 9L glioma cells were grown for 5 days in 4-well Lab-Tek chamber slides (Naperville, Ill.). Before the cell experiments, the culture medium was replaced by preincubation medium (medium with 1% (w/v) BSA instead of FBS). The cells were washed three times with preincubation medium (for 15, 15, and 30 min), and cultured in this medium for a further 20 hours. Experiments were started, after two quick washes with preincubation medium, by the addition of preincubation medium containing the indicated amounts of Pyro-2DG and/or D-Glucose. After 30 minutes incubation at 37° C., the cells were washed five times with ice-cold PBS containing 0.8% BSA, two times with PBS alone, and fixed for 20 minutes with 2% formaldehyde in PBS at room temperature. Then the chamber slides were mounted and sealed for confocal microscopic analysis.
9L glioma cells, obtained from Department of Radiation Oncology at University of Pennsylvania, were cultured in Modified Eagle's Medium (NEM) supplemented with 15% newborn calf serum (NCS), 100 U/ml penicillin-streptomycin. Murine melanoma B16 cells, obtained from Dr. Theo van Berkel's laboratory at the University of Leiden, Netherlands, were cultured in Dulbeco's modified Eagle's medium (DMM) supplemented with 10% fetal bovine serum (FBS) and 100 U/n-d penicillin-streptomycin Cells were grown at 37° C. in an atmosphere of 5% CO2 in a humidified incubator. Cells were grown for 5 days in 4-well Lab-Tek chamber slides (Naperville, Ill.) before the experiment. Indicated amounts of NIRF-2DGs with or without D-Glucose and Rbodarninc-123 were incubated with 9L glioma cells/B16 melanoma cells at 37° C. for 30 min after 3 washes with Dulbecco's Phosphate Buffered Saline (D-PBS). After incubation, the cells were washed five times with ice-cold PBS and Fixed for 20 minutes with 2% formaldehyde in PBS at room temperature. Then the chamber slides were mounted and sealed for confocal niicroscopic analysis. Confocal aticroscopic images were obtained with TCS SPII laser scanning confocal microscope (LSCM) (Heidelber, Germany).

[2] = Biodistribution in organs of a normal Fisher 344 rat by Cryo-imager; format: in vivo; details: 1 hour after intravenous administration, preliminary
Description: FIG. 9. Pyro-2DG uptake in different organs of a Fisher 344 rat after 1 h tail vein infusion of 2 ml of 2.5 mg/kg Pyro-2DG. Liver (top left), kidney (bottom left), spleen (bottom middle) and brain (bottom right). Images of the frozen liver and of the control liver (no Pyro-2DG), respectively, appear in the top middle and right hand panels.
In order to determine the biodistribution of the Pyro-2DG, a normal Fisher 344 rat was sacrificed and different organs were scanned for Pyro-2DG fluorescence with Cryo-imager 1 hour after Pyro-2DG was intravenously administered.

[3] = Water solubility / miscibility of Pyro-2DG; format: physicochemical
9L glioma = format: in vivo, rat
Description: Animals: Rat 9L glioma was implanted on the flanks of male Fisher 344 rats (150 -200 g) via subcutaneous injection of 0.1 mL, ˜10^6 9L glioma cells. Within ten days, tumors grew to the desired size of 1 cm in diameter.
After not feeding animals for 24 hours, the rats were anaesthetized via intraperitoneal injection of Ketamine (75 mg/kg) and Xylazine (10 mg/kg). Pyro-2DG (2 mL, concentration: 0.25 mg/mL) was injected via tail vein infusion over a period of 1 hour (dose: 2.5 mg/kg). Thirty minutes later, the rats were anesthetized again and subjected to PDT.
PDT Protocol: A “point treatment” protocol was designed for evaluating PDT response of Pyro-2DG. PDT was carried out using a KTP YAG pumped dye module (Laserscope, San Jose, Calif.) tuned to produce 670 nm light. Light delivery was through a 1 mm fiber to create a treatment spot of 0.96 mm in diameter when the fiber was held closely adjacent to the tumor. The light field was fixed in position at the center of the tumor by mounting the fiber in the center of a circular plate which was glued to the anesthetized animal. The light was delivered at a fluence rate of 75 mW/cm^2 to a total dose of 175 J/cm^2. Laser power output was measured with a power meter (Coherent, Auburn, Calif.).
Fluorescence Imaging of Tumors (Quistorff, B., Haselgrove, J. C., and Chance, B. (1985) High spatial resolution readout of 3-D metabolic organ structure: an automated, low-temperature redox ratio-scanning instrument. Anal. Biochem. 148, 389-400; Gu, Y. Q., Qian, Z. Y., Chen, J. X., Blessington, D., Ramanujam, N., and Chance, B. (2002) High-resolution three-dimensional scanning optical image system for intrinsic and extrinsic contrast agents in tissue. Rev. Sci. Instruments 73, 172-178; Ramanujam, N., Richards-Kortum, R., Thomsen, S., Mahadevan-Jansen, A., Follen M., and Chance B. (2001) Low temperature fluorescence imaging of freeze-trapped human cervical tissues. Opt. Express 8, 335-343): Immediately after PDT, animals were immersed in pre-cooled isopentane (−150° C.) and transferred to liquid nitrogen (−196° C.) 5 minutes later. Tumors were then surgically excised, embedded in a mixture of ethanol-glycerol-water (freeze point: −30° C.), and mounted at low temperature for 3D surface fluorometric scanning. […] The fluorescence signal was automatically digitized and recorded on a PC. The redox ratio of FP/(FP+PN) was calculated with MATLAB.
A “point treatment” protocol for evaluating PDT response of Pyro-2DG was designed. […] Based on the absorption and emission maxima of Pyro-2DG (λex=665 nm; λem=720 nm), the 9L tumor was treated with 670 nm laser light, and a 700 nm long pass filter was incorporated into the 3D fluorescence scanner for collecting the Pyro-2DG fluorescence at 720 nm. […]

[4] = after PDT, 670 nm, 75 mW/cm^2, 175 J/cm^2

Compound: 2-deoxyglucose conjugate of Bacteriopurpurin-18-N-3′-(isothiocyanate)-propylimide [BChlPP-2DG]
- enhancement of the tumor region [1]: enhanced

Compound: CC1(C)C(/C=C/C=C/C=C/C=C2\N(CCCCS(=O)(=O)O)c3ccc4ccccc4c3C2(C)C)=[N+](CCCCS(=O)(=O)[O-])c2ccc3ccccc3c21 [ICG, Indocyanine Green, reference compound]
- enhancement of the tumor region [1]: no significant enhancement

- accumulation in liver [2]: accumulated predominantly in liver
- accumulation in spleen and kidney [2]: lesser accumulation in spleen and kidney
- crossing of the blood-brain barrier [2]: does not cross the blood-brain barrier
- miscibility with water ([3]; formulation with detergent (1% Tween 80)): completely miscible with water
- water solubility ([3]; without detergent): only partially water-soluble
Compound: Pyropheophorbide-2-deoxyglucosamide [Pyro-2DG]
- uptake / localization in 9L glioma cells (9L glioma cells): localizes within 9L glioma cells
- effect of D-glucose on uptake / localization in 9L glioma cells (9L glioma cells): competitively inhibited by D-glucose
- subcellular localization in 9L glioma cells (9L glioma cells): localize in mitochondria
- NADH fluorescence of irradiated spot (9L glioma; [4]): significant decrease
- PP fluorescence of irradiated spot (9L glioma; [4]): marked increase
- redox ratio of the tumor FP/(FP+PN) (9L glioma; after PDT, irradiated region): dramatic increase
- effect on mitochondrial activities (redox state) of the tumor (9L glioma; rat, in vivo): no effect on the mitochondrial activities of the tumor

Compound: Rhodamine 123 [Rhodamine-123, reference compound]
- subcellular localization in 9L glioma cells (9L glioma cells): localize in mitochondria

Compound: pyropheophorbide a [reference compound]
- uptake / localization in 9L glioma cells (9L glioma cells): concentration dependent
- effect of D-glucose on uptake / localization in 9L glioma cells (9L glioma cells): not inhibited by D-glucose
